Test results taken from patent publication US10201586B2 (dated 2019).
Where a SMILES comes first, the peptide text is derived from it. Bridges are numbered along the chain shown (N, C = ends). [ ]: non-standard residue; d: D form. Tle = CC(C)(C)[C@H](N)C(=O)O; Aib = CC(C)(N)C(=O)O

How the values were obtained:
[1] = biological target: T1, TFPI (Homo sapiens, UniProt P10646); test: IC50 [nM]
[2] = biological target: T1, TFPI; test: IC50 Mean (nM]
Excerpt: Head of the field: IC50 Mean (nM]
“*” denotes negative controls.

[3] = biological target: T1, TFPI; test: IC50 [nm]
[4] = biological target: T1, TFPI; test: IC50 [nm]; remark: listed apart in the source
[5] = biological target: T1, TFPI; test: IC50 [nM]; remark: listed apart in the source
[6] = biological target: Tissue Factor Pathway Inhibitor (TFPI) (Homo sapiens, UniProt P10646); test: IC50 ELISA | IC50 [nM]
Tissue Factor Pathway Inhibitor (TFPI), sequence (P10646 29-304 limits assumed): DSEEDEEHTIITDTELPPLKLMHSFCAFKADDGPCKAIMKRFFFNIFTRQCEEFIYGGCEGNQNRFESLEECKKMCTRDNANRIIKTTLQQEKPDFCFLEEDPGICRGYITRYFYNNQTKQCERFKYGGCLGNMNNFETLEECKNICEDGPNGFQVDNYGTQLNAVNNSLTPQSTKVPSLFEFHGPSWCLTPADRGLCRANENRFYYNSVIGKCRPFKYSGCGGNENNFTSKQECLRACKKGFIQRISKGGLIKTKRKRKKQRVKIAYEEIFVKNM

[7] = biological target: T1, TFPI; test: IC50 [nm]; remark: listed apart in the source

T1 sequence (P10646 29-304 limits assumed): as above

Work on `CSCC[C@H](NC(=O)[C@H](CCC(=O)O)NC(=O)[C@H](CCCCN)NC(=O)[C@H](CO)NC(=O)[C@H](CCCNC(=N)N)NC(=O)[C@H](CCCCN)NC(=O)[C@H](CO)NC(=O)[C@@H](NC(=O)[C@H](Cc1c[nH]cn1)NC(=O)[C@H](CC(C)C)NC(=O)[C@H](CCC(N)=O)NC(=O)[C@@H](NC(=O)[C@H](C)NC(=O)[C@H](CC(C)C)NC(=O)[C@@H]1CCCN1C(=O)[C@H](CCCCN)NC(=O)[C@H](CCCCN)NC(C)=O)C(C)C)C(C)C)C(=O)N[C@@H](C)C(=O)N[C@@H](CC(C)C)C(=O)N[C@@H](C)C(=O)N[C@@H](CCCNC(=N)N)C(=O)N[C@@H](CC(C)C)C(=O)N[C@@H](Cc1ccc(O)cc1)C(=O)N[C@@H](Cc1ccc(O)cc1)C(=O)N[C@@H](CCCCN)C(=O)N[C@H](C(=O)N[C@@H](CO)C(=O)N[C@@H](CCCCN)C(=O)N[C@@H](CCCCN)C(N)=O)[C@@H](C)O` [JBT0229 | 2129] (Ac-KKPLAVQLHVSKRSKEMALARLYYKTSKK-NH2) yielded an IC50 [1] of 17 µM.

With `CC[C@H](C)[C@H](NC(=O)[C@@H](NC(=O)CNC(=O)[C@@H]1CCCN1C(=O)CNC(=O)[C@H](Cc1c[nH]c2ccccc12)NC(=O)[C@@H](NC(=O)[C@@H](NC(=O)[C@H](CCCCN)NC(=O)[C@H](CO)NC(=O)[C@H](Cc1c[nH]c2ccccc12)NC(=O)[C@H](Cc1ccccc1)NC(=O)[C@H](Cc1ccc(O)cc1)NC(=O)[C@@H](NC(=O)[C@H](Cc1c[nH]c2ccccc12)NC(=O)[C@H](CC(=O)O)NC(=O)CNC(=O)[C@@H](NC(=O)[C@H](CC(C)C)NC(=O)[C@H](CCCCN)NC(=O)[C@H](CCCCN)NC(C)=O)[C@@H](C)O)[C@@H](C)O)C(C)C)[C@@H](C)CC)C(C)C)C(=O)N[C@@H](CCC(=O)O)C(=O)N[C@@H](CCCNC(=N)N)C(=O)N[C@@H](CCC(N)=O)C(=O)N[C@@H](CCSC)C(=O)N1CCC[C@H]1C(=O)N[C@H](C(=O)N[C@@H](CO)C(=O)N[C@H](C(=O)N[C@@H](Cc1ccccc1)C(=O)N[C@@H](Cc1c[nH]cn1)C(=O)N[C@@H](CCCCN)C(=O)N[C@@H](CCCCN)C(N)=O)[C@@H](C)O)C(C)C` [JBT0177* | 3065] (Ac-KKLTGDWTYFWSKVIWGPGVIERQMPVSTFHKK-NH2) the IC50 [2] was greater than 50 µM.

`CSCC[C@H](NC(=O)CNC(=O)[C@H](Cc1ccccc1)NC(=O)[C@H](Cc1c[nH]c2ccccc12)NC(=O)[C@H](CCCCN)NC(=O)[C@H](Cc1ccc(O)cc1)NC(=O)[C@H](CCCNC(=N)N)NC(=O)[C@H](CO)NC(C)=O)C(=O)N[C@@H](CCCNC(=N)N)C(=O)N[C@H]1CSSC[C@@H](C(=O)N[C@H](C(=O)N[C@@H](CCSC)C(=O)N[C@@H](CO)C(=O)N[C@H](C(=O)N[C@@H](Cc2c[nH]c3ccccc23)C(=O)N[C@H](C(=O)N[C@@H](CCCCN)C(=O)N[C@@H](Cc2ccccc2)C(N)=O)C(C)C)C(C)C)[C@@H](C)O)NC(=O)CNC(=O)[C@H](CCCCN)NC(=O)[C@H](CCSC)NC(=O)[C@H](CC(=O)O)NC1=O` [JBT0470 | 1162] (Ac-SRYKWFGMRCDMKGCTMSVWVKF-NH2; disulfide 10-15) was tested, and the IC50 [3] was 1470 nM.

`CSCC[C@@H]1NC(=O)CNC(=O)[C@@H](NC(=O)[C@H](Cc2c[nH]cn2)NC(=O)[C@H](Cc2c[nH]c3ccccc23)NC(=O)[C@H](CCCCN)NC(=O)[C@H](Cc2ccc(O)cc2)NC(=O)[C@H](Cc2ccc(O)cc2)NC(=O)[C@H](CO)NC(C)=O)CSSC[C@@H](C(=O)N[C@H](C(=O)N[C@@H](Cc2c[nH]c3ccccc23)C(=O)N[C@H](C(=O)N[C@@H](CCCCN)C(=O)N[C@@H](Cc2ccccc2)C(N)=O)C(C)C)C(C)C)NC(=O)[C@H]([C@@H](C)O)NC(=O)[C@H](CCSC)NC(=O)[C@H]([C@@H](C)O)NC(=O)CNC(=O)[C@H](CCCCN)NC(=O)[C@H](CCSC)NC(=O)[C@H](CC(=O)O)NC(=O)[C@H](CCCNC(=N)N)NC1=O` [JBT1815 | 1032] (Ac-SYYKWHCGMRDMKGTMTCVWVKF-NH2; disulfide 7-18) showed an IC50 [4] of 10 nM.

Compound `CC[C@H](C)[C@H](NC(=O)[C@H](CCC(=O)O)NC(=O)[C@H](CCCCN)NC(=O)[C@H](CO)NC(=O)[C@H](CCCNC(=N)N)NC(=O)[C@H](CCCCN)NC(=O)[C@H](CO)NC(=O)[C@@H](NC(=O)[C@H](Cc1c[nH]cn1)NC(=O)[C@H](CC(C)C)NC(=O)[C@H](CCC(N)=O)NC(=O)[C@@H](NC(=O)[C@H](C)NC(=O)[C@H](CCC(N)=O)NC(=O)[C@H](Cc1c[nH]c2ccccc12)NC(=O)[C@H](Cc1ccccc1)NC(=O)[C@H](CO)NC(=O)[C@H](C)NC(=O)[C@H](Cc1ccc(O)cc1)NC(=O)CNC(C)=O)C(C)C)C(C)C)C(=O)N[C@@H](C)C(N)=O` [JBT1663 | 2146] (Ac-GYASFWQAVQLHVSKRSKEIA-NH2) has an IC50 [5] of 12.9 µM.

With `CC(=O)N[C@@H](Cc1ccccc1)C(=O)N[C@@H](CCC(N)=O)C(=O)N[C@@H](CC(=O)O)C(=O)N[C@@H](CCCCN)C(=O)N1CCC[C@@H]1C(=O)N[C@@H](CC(N)=O)C(=O)N[C@H](C(=O)N[C@@H](Cc1c[nH]cn1)C(=O)N[C@H](C(=O)N[C@@H](CC(=O)O)C(=O)NCC(=O)N[C@@H](Cc1ccc(O)cc1)C(=O)N[C@@H](Cc1ccccc1)C(=O)N[C@@H](CCC(=O)O)C(=O)N[C@@H](CCCNC(=N)N)C(=O)N[C@@H](CC(C)C)C(=O)NC(C)(C)C(=O)N[C@@H](C)C(=O)N[C@@H](CCCCN)C(=O)N[C@@H](CC(C)C)C(N)=O)C(C)(C)C)C(C)C` [JBT2426 | 4144, Ac-FQDKpNVH-Tle-DGYFERL-Aib-AKL-NH2] (Ac-FQDK[dP]NVH[Tle]DGYFERL[Aib]AKL-NH2) the IC50 [6] was 10.5 nM.

In the case of `CSCC[C@@H]1NC(=O)[C@H](C)NC(=O)[C@@H](NC(=O)[C@H](Cc2c[nH]cn2)NC(=O)[C@H](Cc2c[nH]c3ccccc23)NC(=O)[C@H](CCCCN)NC(=O)[C@H](Cc2ccc(O)cc2)NC(=O)[C@H](Cc2c[nH]cn2)NC(=O)[C@H](CO)NC(C)=O)CSSC[C@@H](C(=O)N[C@@H](C)C(=O)N[C@@H](Cc2c[nH]c3ccccc23)C(=O)N[C@H](C(=O)N[C@@H](CCCCN)C(=O)N[C@@H](Cc2ccccc2)C(N)=O)C(C)C)NC(=O)[C@H](CO)NC(=O)[C@H](CCSC)NC(=O)[C@H]([C@@H](C)O)NC(=O)CNC(=O)[C@H](CCCCN)NC(=O)[C@H](CCSC)NC(=O)[C@H](CC(=O)O)NC(=O)[C@H](CCCNC(=N)N)NC1=O` [JBT1842 | 1046] (Ac-SHYKWHCAMRDMKGTMSCAWVKF-NH2; disulfide 7-18), the IC50 [7] is reported as 9 nM.
